# Data published in US9139570B2, “Solid forms of an antiviral compound” (priority 2012, dated 2015).
# Values joined by “and” are separate entries in the source; they are usually repeats but may differ in a detail not shown here. Equal values may be shown once. Read-outs that look alike come from different tables or passages of the source.
# Legend:
# [1] = Dynamic vapor sorption (DVS) hygroscopicity; assay type: physicochemical; conditions: for moisture uptake / weight gain (DVS): at 90% relative humidity
# [2] = Stable form screen (slurry in solvents, XRPD); assay type: physicochemical; conditions: 2 weeks
# Method: Approximately 15-60 mg of amorphous (1-{3-[6-(9,9-difluoro-7-{2-[5-(2-methoxycarbonylamino-3-methyl-butyryl)-5-aza-spiro[2.4]hept-6-yl]-3H-imidazol-4-yl}-9H-fluoren-2-yl)-1H-benzoimidazol-2-yl]-2-aza-bicyclo[2.2.1]heptane-2-carbonyl}-2-methyl-propyl)-carbamic acid (HPLC purity of 99.3%) were weighed and transferred to a vial equipped with a mini magnetic stir bar. […] The slurry was allowed to stir for two weeks at room temperature (˜22° C.) and examined periodically.
# After two weeks, a sample of 300 μL of the slurry was removed from the vial, transferred to a centrifuge filter (Costar, 0.45 micron) and centrifuged at 1000 rpm for 2 minutes. The solid in the wet cake form were analyzed using XRPD analysis (PANalytical X'Pert PRO X-ray powder diffractometer). This diffractometer uses Cu-Kα radiation at a wavelength of 1.54178 Å, and it operates under reflection mode. Scan range is from 2 to 40 degree 2 theta. The step size is 0.0080 at a scan speed of 0.13°/s, which gives about 5 min per scan. After air drying the small sample, XRPD analysis was performed again to monitor any change in the diffraction pattern between the wet and dry material. Thermogravimetric analysis (TGA) was run on the saturated solution to determine the solubility of the equilibrating solids in the solvent when the solid appeared to be crystalline.
# [3] = Dissolution rate / kinetic solubility in water at pH 3
# [4] = Photostability of solid forms, photoexposure 0.9 M Lux-hrs, HPLC analysis; assay type: physicochemical
# From the text: FIG. 6 compares the photodegradation behaviors of amorphous Compound I (vertical stripes), Compound I Form II (horizontal stripes), and a partially amorphous hydrochloride salt of Compound I (diagonal stripes) during photoexposure at 0.9 M Lux-hrs. The leftmost group of bars represents the overall decrease in HPLC % AN of these three forms of Compound I. The middle group of bars represents the formation of a primary photodegradation impurity resulting from each form of Compound I. The rightmost group of bars similarly represents the formation of a secondary photodegradation impurity that eluted on HPLC at relative retention time (RRT) 1.67.
# HPLC analyses of the samples compared the amounts of photodegradation products in each sample. […] For example, Form II of Compound I gave rise to the lowest (2.24% AN) amount of photodegradation in this experiment.
# The middle group and rightmost group of bars depict the amounts of two of the major photodegradation impurities formed after the three solid forms of Compound I were photoexposed.
# Slurry test in water = assay type: physicochemical
# From the text: The source of water is believed to be moisture in the air during material transfer.
# [5] = Solubility of Compound I over a greater pH range; conditions: aqueous buffer
smiles,measurement,setting,value
"COC(=O)N[C@H](C(=O)N1CC2(CC2)C[C@H]1c1ncc(-c2ccc3c(c2)C(F)(F)c2cc(-c4ccc5nc([C@@H]6[C@H]7CC[C@H](C7)N6C(=O)[C@@H](NC(=O)OC)C(C)C)[nH]c5c4)ccc2-3)[nH]1)C(C)C [Compound I D-tartrate, (1-{3-[6-(9,9-difluoro-7-{2-[5-(2-methoxycarbonylamino-3-methyl-butyryl)-5-aza-spiro[2.4]hept-6-yl]-3H-imidazol-4-yl}-9H-fluoren-2-yl)-1H-benzoimidazol-2-yl]-2-aza-bicyclo[2.2.1]heptane-2-carbonyl}-2-methyl-propyl)-carbamic acid D-tartrate]",moisture uptake / weight gain (DVS),[1],less than 3%
same,physical form by XRPD after slurry in various solvents,[2],physical form did not change
"COC(=O)N[C@H](C(=O)N1CC2(CC2)C[C@H]1c1ncc(-c2ccc3c(c2)C(F)(F)c2cc(-c4ccc5nc([C@@H]6[C@H]7CC[C@H](C7)N6C(=O)[C@@H](NC(=O)OC)C(C)C)[nH]c5c4)ccc2-3)[nH]1)C(C)C [Compound I Form II, (1-{3-[6-(9,9-difluoro-7-{2-[5-(2-methoxycarbonylamino-3-methyl-butyryl)-5-aza-spiro[2.4]hept-6-yl]-3H-imidazol-4-yl}-9H-fluoren-2-yl)-1H-benzoimidazol-2-yl]-2-aza-bicyclo[2.2.1]heptane-2-carbonyl}-2-methyl-propyl)-carbamic acid methyl ester monoacetone solvate]",dissolution rate ranking,[3],slowest dissolution rate
same,photostability compared with amorphous Compound I and partially amorphous HCl salt,[4],best photostability among the three forms compared
same,overall decrease in HPLC % AN (amount of photodegradation),[4]; solid,2.24 % AN
"COC(=O)N[C@H](C(=O)N1CC2(CC2)C[C@H]1c1ncc(-c2ccc3c(c2)C(F)(F)c2cc(-c4ccc5nc([C@@H]6[C@H]7CC[C@H](C7)N6C(=O)[C@@H](NC(=O)OC)C(C)C)[nH]c5c4)ccc2-3)[nH]1)C(C)C [Compound I Form III, (1-{3-[6-(9,9-difluoro-7-{2-[5-(2-methoxycarbonylamino-3-methyl-butyryl)-5-aza-spiro[2.4]hept-6-yl]-3H-imidazol-4-yl}-9H-fluoren-2-yl)-1H-benzoimidazol-2-yl]-2-aza-bicyclo[2.2.1]heptane-2-carbonyl}-2-methyl-propyl)-carbamic acid methyl ester]",moisture uptake / weight gain (DVS),[1]; listed as Form III,less than 0.3%
same,hygroscopicity by DVS (words),[1]; listed as Form III,nonhygroscopic
"COC(=O)N[C@H](C(=O)N1CC2(CC2)C[C@H]1c1ncc(-c2ccc3c(c2)C(F)(F)c2cc(-c4ccc5nc([C@@H]6[C@H]7CC[C@H](C7)N6C(=O)[C@@H](NC(=O)OC)C(C)C)[nH]c5c4)ccc2-3)[nH]1)C(C)C [Compound I Form V, (1-{3-[6-(9,9-difluoro-7-{2-[5-(2-methoxycarbonylamino-3-methyl-butyryl)-5-aza-spiro[2.4]hept-6-yl]-3H-imidazol-4-yl}-9H-fluoren-2-yl)-1H-benzoimidazol-2-yl]-2-aza-bicyclo[2.2.1]heptane-2-carbonyl}-2-methyl-propyl)-carbamic acid methyl ester ethyl acetate solvate]",hygroscopicity by DVS (words),[1]; listed as Form V,non-hygroscopic
"COC(=O)N[C@H](C(=O)N1CC2(CC2)C[C@H]1c1ncc(-c2ccc3c(c2)C(F)(F)c2cc(-c4ccc5nc([C@@H]6[C@H]7CC[C@H](C7)N6C(=O)[C@@H](NC(=O)OC)C(C)C)[nH]c5c4)ccc2-3)[nH]1)C(C)C [Compound I Form VIII, (1-{3-[6-(9,9-difluoro-7-{2-[5-(2-methoxycarbonylamino-3-methyl-butyryl)-5-aza-spiro[2.4]hept-6-yl]-3H-imidazol-4-yl}-9H-fluoren-2-yl)-1H-benzoimidazol-2-yl]-2-aza-bicyclo[2.2.1]heptane-2-carbonyl}-2-methyl-propyl)-carbamic acid methyl ester]",water absorbed (DVS),[1],roughly one equivalent of water
same,stability in water (slurry test),Slurry test in water,stable in water
"COC(=O)N[C@H](C(=O)N1CC2(CC2)C[C@H]1c1ncc(-c2ccc3c(c2)C(F)(F)c2cc(-c4ccc5nc([C@@H]6[C@H]7CC[C@H](C7)N6C(=O)[C@@H](NC(=O)OC)C(C)C)[nH]c5c4)ccc2-3)[nH]1)C(C)C [Compound I Form XV, (1-{3-[6-(9,9-difluoro-7-{2-[5-(2-methoxycarbonylamino-3-methyl-butyryl)-5-aza-spiro[2.4]hept-6-yl]-3H-imidazol-4-yl}-9H-fluoren-2-yl)-1H-benzoimidazol-2-yl]-2-aza-bicyclo[2.2.1]heptane-2-carbonyl}-2-methyl-propyl)-carbamic acid methyl ester]",hygroscopicity by DVS (words),[1]; listed as Form XV,non-hygroscopic
"COC(=O)N[C@H](C(=O)N1CC2(CC2)C[C@H]1c1ncc(-c2ccc3c(c2)C(F)(F)c2cc(-c4ccc5nc([C@@H]6[C@H]7CC[C@H](C7)N6C(=O)[C@@H](NC(=O)OC)C(C)C)[nH]c5c4)ccc2-3)[nH]1)C(C)C [Compound I, (1-{3-[6-(9,9-difluoro-7-{2-[5-(2-methoxycarbonylamino-3-methyl-butyryl)-5-aza-spiro[2.4]hept-6-yl]-3H-imidazol-4-yl}-9H-fluoren-2-yl)-1H-benzoimidazol-2-yl]-2-aza-bicyclo[2.2.1]heptane-2-carbonyl}-2-methyl-propyl)-carbamic acid methyl ester]",solubility,[5],< 1 µg/mL
COC(=O)N[C@H](C(=O)N1CC2(CC2)C[C@H]1c1ncc(-c2ccc3c(c2)C(F)(F)c2cc(-c4ccc5nc([C@@H]6[C@H]7CC[C@H](C7)N6C(=O)[C@@H](NC(=O)OC)C(C)C)[nH]c5c4)ccc2-3)[nH]1)C(C)C [amorphous Compound I],hygroscopicity by DVS (words),[1],hygroscopic
same,moisture induced phase transformation,[1]; any humidity level,does not undergo moisture induced phase transformation
same,moisture uptake / weight gain (DVS),[1],5.4% and 5.6%
